Reference: the NIST ThermoML archive (doi:10.1007/s10765-006-0100-z)

What was measured:
[1] = xn = mol fraction of the nth substance listed; conditions: 101 kPa, Liquid; for mass density: Vibrating tube method
[2] = 101 kPa, Liquid; for mass density: Vibrating tube method

C1CCOCC1 [tetrahydropyran] + CCCCCl
[1], x1 = 1
Conditions	kinematic viscosity [m2/s]	mass density [kg/m3]
298.15 K	9.1e-07	878.81
313.15 K	7.57e-07	863.67

C1CCOCC1 [tetrahydropyran] + CC(C)(C)Cl
[1], x1 = 1
Conditions	kinematic viscosity [m2/s]	mass density [kg/m3]
298.15 K	9.1e-07	878.81
313.15 K	7.57e-07	863.67

C1CCOCC1 [tetrahydropyran] + CCC(C)Cl
[1], x1 = 1
Conditions	kinematic viscosity [m2/s]	mass density [kg/m3]
298.15 K	9.1e-07	878.81
313.15 K	7.57e-07	863.67

CC(C)(C)Cl [2-chloro-2-methylpropane] + C1CCOCC1
[1]
Conditions	kinematic viscosity [m2/s]	mass density [kg/m3]
298.15 K, x2 = 0	5.68e-07	836.45
298.15 K, x2 = 0.0324	–	838.08
298.15 K, x2 = 0.0614	5.84e-07	–
298.15 K, x2 = 0.1075	5.96e-07	–
298.15 K, x2 = 0.1086	–	842.07
298.15 K, x2 = 0.2097	–	847.11
298.15 K, x2 = 0.2173	6.27e-07	–
298.15 K, x2 = 0.2891	–	851.05
298.15 K, x2 = 0.3205	6.57e-07	–
298.15 K, x2 = 0.42	6.88e-07	–
298.15 K, x2 = 0.4276	–	857.41
298.15 K, x2 = 0.496	–	860.32
298.15 K, x2 = 0.5176	7.2e-07	–
298.15 K, x2 = 0.6107	–	864.98
298.15 K, x2 = 0.6155	7.54e-07	–
298.15 K, x2 = 0.6483	–	866.46
298.15 K, x2 = 0.7156	7.91e-07	–
298.15 K, x2 = 0.8093	–	872.39
298.15 K, x2 = 0.8277	8.35e-07	–
298.15 K, x2 = 0.8606	–	874.22
298.15 K, x2 = 0.9097	8.7e-07	–
298.15 K, x2 = 0.954	–	877.25
298.15 K, x2 = 0.9547	8.89e-07	–
313.15 K, x2 = 0	4.77e-07	818.31
313.15 K, x2 = 0.0451	4.87e-07	–
313.15 K, x2 = 0.0584	–	821.7
313.15 K, x2 = 0.0875	–	823.35
313.15 K, x2 = 0.0887	4.97e-07	–
313.15 K, x2 = 0.1943	–	829.15
313.15 K, x2 = 0.1978	5.21e-07	–
313.15 K, x2 = 0.3028	–	834.83
313.15 K, x2 = 0.3053	5.47e-07	–
313.15 K, x2 = 0.3972	5.7e-07	–
313.15 K, x2 = 0.4249	–	840.83
313.15 K, x2 = 0.4929	–	843.99
313.15 K, x2 = 0.5024	5.98e-07	–
313.15 K, x2 = 0.6093	–	849.16
313.15 K, x2 = 0.6359	6.36e-07	–
313.15 K, x2 = 0.7052	–	853.15
313.15 K, x2 = 0.7056	6.57e-07	–
313.15 K, x2 = 0.796	6.86e-07	–
313.15 K, x2 = 0.7988	–	856.89
313.15 K, x2 = 0.9063	7.23e-07	–
313.15 K, x2 = 0.9097	–	860.95
313.15 K, x2 = 0.9526	7.4e-07	–
313.15 K, x2 = 0.9614	–	862.64

C1CCOCC1 [tetrahydropyran]
[2]
Conditions	kinematic viscosity [m2/s]	mass density [kg/m3]
298.15 K	9.1e-07	878.81
313.15 K	7.57e-07	863.67

CC(C)(C)Cl [2-chloro-2-methylpropane]
[2]
Conditions	kinematic viscosity [m2/s]	mass density [kg/m3]
298.15 K	5.68e-07	836.45
313.15 K	4.77e-07	818.31

CCCCCl [1-chlorobutane] + C1CCOCC1
[1]
Conditions	kinematic viscosity [m2/s]	mass density [kg/m3]
298.15 K, x2 = 0	4.78e-07	880.69
298.15 K, x2 = 0.0243	4.84e-07	–
298.15 K, x2 = 0.0521	–	880.67
298.15 K, x2 = 0.1006	–	880.66
298.15 K, x2 = 0.1039	5.02e-07	–
298.15 K, x2 = 0.1949	–	880.62
298.15 K, x2 = 0.2058	5.29e-07	–
298.15 K, x2 = 0.2549	–	880.59
298.15 K, x2 = 0.307	5.59e-07	–
298.15 K, x2 = 0.3774	–	880.48
298.15 K, x2 = 0.3984	5.89e-07	–
298.15 K, x2 = 0.5035	–	880.26
298.15 K, x2 = 0.5077	6.3e-07	–
298.15 K, x2 = 0.5948	–	880.06
298.15 K, x2 = 0.6038	6.69e-07	–
298.15 K, x2 = 0.661	–	879.87
298.15 K, x2 = 0.7064	7.18e-07	–
298.15 K, x2 = 0.7893	–	879.49
298.15 K, x2 = 0.7994	7.68e-07	–
298.15 K, x2 = 0.9058	8.37e-07	–
298.15 K, x2 = 0.9203	–	879.07
298.15 K, x2 = 0.9498	8.7e-07	–
298.15 K, x2 = 0.9666	–	878.91
313.15 K, x2 = 0	4.21e-07	863.82
313.15 K, x2 = 0.0243	4.28e-07	–
313.15 K, x2 = 0.0348	–	863.98
313.15 K, x2 = 0.0899	–	864.19
313.15 K, x2 = 0.1039	4.42e-07	–
313.15 K, x2 = 0.1717	–	864.39
313.15 K, x2 = 0.2058	4.63e-07	–
313.15 K, x2 = 0.2933	–	864.54
313.15 K, x2 = 0.307	4.86e-07	–
313.15 K, x2 = 0.3984	5.09e-07	–
313.15 K, x2 = 0.413	–	864.6
313.15 K, x2 = 0.4926	–	864.61
313.15 K, x2 = 0.5077	5.4e-07	–
313.15 K, x2 = 0.6026	–	864.59
313.15 K, x2 = 0.6038	5.72e-07	–
313.15 K, x2 = 0.7064	6.1e-07	–
313.15 K, x2 = 0.7085	–	864.52
313.15 K, x2 = 0.7994	6.49e-07	–
313.15 K, x2 = 0.8006	–	864.45
313.15 K, x2 = 0.899	–	864.22
313.15 K, x2 = 0.9058	7.01e-07	–
313.15 K, x2 = 0.9498	7.25e-07	–
313.15 K, x2 = 0.9724	–	863.88

CCCCCl [1-chlorobutane]
[2]
Conditions	kinematic viscosity [m2/s]	mass density [kg/m3]
298.15 K	4.78e-07	880.69
313.15 K	4.21e-07	863.82

CCC(C)Cl (stereo not drawn) [2-chlorobutane]
[2]
Conditions	kinematic viscosity [m2/s]	mass density [kg/m3]
298.15 K	4.54e-07	867.37
313.15 K	3.96e-07	850.13

C1CCOCC1 [tetrahydropyran] + CC(C)CCl
[1], x1 = 1
Conditions	kinematic viscosity [m2/s]	mass density [kg/m3]
298.15 K	9.1e-07	878.81
313.15 K	7.57e-07	863.67

CCC(C)Cl (stereo not drawn) [2-chlorobutane] + C1CCOCC1
[1]
Conditions	kinematic viscosity, 298.15 K [m2/s]	kinematic viscosity, 313.15 K [m2/s]	mass density, 298.15 K [kg/m3]	mass density, 313.15 K [kg/m3]
x2 = 0	4.54e-07	3.96e-07	867.37	850.13
x2 = 0.0525	–	–	868.05	–
x2 = 0.0605	4.66e-07	4.09e-07	–	851.11
x2 = 0.1035	–	–	869.06	–
x2 = 0.1166	4.8e-07	4.22e-07	–	852.02
x2 = 0.1947	–	–	870.26	–
x2 = 0.2131	5.08e-07	4.45e-07	–	853.59
x2 = 0.3042	–	–	871.8	–
x2 = 0.3174	5.42e-07	4.72e-07	–	855.4
x2 = 0.4088	5.75e-07	4.97e-07	–	857
x2 = 0.4091	–	–	872.95	–
x2 = 0.4994	6.11e-07	5.25e-07	–	858.35
x2 = 0.5025	–	–	874.28	–
x2 = 0.5947	–	–	875.42	–
x2 = 0.6122	6.62e-07	5.66e-07	–	859.58
x2 = 0.7108	7.14e-07	6.06e-07	–	861.03
x2 = 0.7116	–	–	876.72	–
x2 = 0.8059	7.69e-07	6.49e-07	–	862.1
x2 = 0.809	–	–	877.46	–
x2 = 0.8917	–	–	878.36	–
x2 = 0.9023	8.34e-07	6.97e-07	–	862.9
x2 = 0.9549	8.73e-07	7.28e-07	–	863.45
x2 = 0.9599	–	–	878.55	–

CC(C)CCl [1-chloro-2-methylpropane] + C1CCOCC1
[1]
Conditions	kinematic viscosity [m2/s]	mass density [kg/m3]
298.15 K, x2 = 0	4.93e-07	871.13
298.15 K, x2 = 0.048	–	871.69
298.15 K, x2 = 0.054	5.06e-07	–
298.15 K, x2 = 0.1069	5.19e-07	–
298.15 K, x2 = 0.1084	–	872.39
298.15 K, x2 = 0.2033	5.46e-07	–
298.15 K, x2 = 0.212	–	873.53
298.15 K, x2 = 0.29	–	874.38
298.15 K, x2 = 0.311	5.78e-07	–
298.15 K, x2 = 0.3951	–	875.37
298.15 K, x2 = 0.4126	6.11e-07	–
298.15 K, x2 = 0.504	6.45e-07	–
298.15 K, x2 = 0.5062	–	876.3
298.15 K, x2 = 0.595	6.82e-07	–
298.15 K, x2 = 0.6273	–	877.23
298.15 K, x2 = 0.6897	–	877.63
298.15 K, x2 = 0.6954	7.27e-07	–
298.15 K, x2 = 0.8028	7.83e-07	–
298.15 K, x2 = 0.8111	–	878.26
298.15 K, x2 = 0.9066	8.46e-07	–
298.15 K, x2 = 0.9088	–	878.68
298.15 K, x2 = 0.952	–	878.79
298.15 K, x2 = 0.9578	8.8e-07	–
313.15 K, x2 = 0	4.29e-07	853.51
313.15 K, x2 = 0.0432	–	854.17
313.15 K, x2 = 0.054	4.4e-07	–
313.15 K, x2 = 0.0934	–	854.93
313.15 K, x2 = 0.1069	4.51e-07	–
313.15 K, x2 = 0.1923	–	856.35
313.15 K, x2 = 0.2033	4.72e-07	–
313.15 K, x2 = 0.3025	–	857.83
313.15 K, x2 = 0.311	4.97e-07	–
313.15 K, x2 = 0.406	–	859.08
313.15 K, x2 = 0.4126	5.23e-07	–
313.15 K, x2 = 0.5018	–	860.14
313.15 K, x2 = 0.504	5.5e-07	–
313.15 K, x2 = 0.595	5.8e-07	–
313.15 K, x2 = 0.6079	–	861.19
313.15 K, x2 = 0.6954	6.16e-07	–
313.15 K, x2 = 0.7238	–	862.24
313.15 K, x2 = 0.7895	–	862.78
313.15 K, x2 = 0.8028	6.6e-07	–
313.15 K, x2 = 0.8874	–	863.42
313.15 K, x2 = 0.9066	7.07e-07	–
313.15 K, x2 = 0.9463	–	863.68
313.15 K, x2 = 0.9578	7.33e-07	–

CC(C)CCl [1-chloro-2-methylpropane]
[2]
Conditions	kinematic viscosity [m2/s]	mass density [kg/m3]
298.15 K	4.93e-07	871.13
313.15 K	4.29e-07	853.51
